# In ChEMBL document CHEMBL1147166, “Structure-activity relationships of methoctramine-related polyamines as muscarinic antagonist: effect of replacing the inner polymethylene chain with cyclic moieties” (Bioorg Med Chem, 2007):
# Calls of active or inactive are those of the source. The rule behind the calls is not given here.
# Assays:
# [1] = system: Mus musculus; experiment: Antinociceptive activity in mouse assessed as licking latency at 0.3 ug, icv after 45 mins by hot plate method; format: functional
# [2] = system: Mus musculus; experiment: Antinociceptive activity in mouse assessed as licking latency at 10 ug, icv after 30 mins by hot plate method; format: functional
# [3] = system: Mus musculus; experiment: Antinociceptive activity in mouse assessed as licking latency at 0.03 ug, icv after 45 mins by hot plate method; format: functional
# [4] = system: Mus musculus; experiment: Antinociceptive activity in mouse assessed as licking latency at 0.01 ug, icv after 30 mins by hot plate method; format: functional
# [5] = system: Mus musculus; experiment: Antinociceptive activity in mouse assessed as licking latency at 10 ug, icv after 45 mins by hot plate method; format: functional
# [6] = system: Mus musculus; experiment: Antinociceptive activity in mouse assessed as licking latency at 0.3 ug, icv after 60 mins by hot plate method; format: functional
# [7] = biological target: T1, Muscarinic acetylcholine receptor M5 (Homo sapiens, UniProt P08912); experiment: Displacement of [3H] N-methyl-scopolamine chloride from human muscarinic receptor M5 expressed in CHO cells; format: cell-based
# T1 sequence (P08912 whole entry): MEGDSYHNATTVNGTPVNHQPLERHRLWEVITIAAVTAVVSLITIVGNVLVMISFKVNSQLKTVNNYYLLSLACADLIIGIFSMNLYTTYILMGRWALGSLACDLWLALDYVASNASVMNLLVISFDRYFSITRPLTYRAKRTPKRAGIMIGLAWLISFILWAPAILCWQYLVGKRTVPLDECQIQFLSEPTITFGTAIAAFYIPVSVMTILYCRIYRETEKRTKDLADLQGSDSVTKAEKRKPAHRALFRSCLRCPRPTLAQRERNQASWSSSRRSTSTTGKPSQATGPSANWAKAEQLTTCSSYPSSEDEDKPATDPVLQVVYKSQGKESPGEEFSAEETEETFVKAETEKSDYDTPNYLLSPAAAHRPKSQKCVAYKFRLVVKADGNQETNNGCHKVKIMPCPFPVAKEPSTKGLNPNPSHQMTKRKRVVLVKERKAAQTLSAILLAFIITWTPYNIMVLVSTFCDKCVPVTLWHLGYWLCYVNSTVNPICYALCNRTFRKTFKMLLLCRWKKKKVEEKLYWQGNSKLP
# [8] = species: Rattus norvegicus; experiment: Increase in Ach release in rat parietal cortex by cerebral microdialysis test; format: functional
# [9] = system: Mus musculus; experiment: Antinociceptive activity in mouse assessed as licking latency at 10 ug, icv after 15 mins by hot plate method; format: functional
# [10] = system: Mus musculus; experiment: Antinociceptive activity in mouse assessed as licking latency at 1.0 ug, icv after 60 mins by hot plate method; format: functional
# [11] = system: Mus musculus; experiment: Antinociceptive activity in mouse assessed as licking latency at 0.01 ug, icv after 15 mins by hot plate method; format: functional
# [12] = biological target: T2, Muscarinic acetylcholine receptor M2 (Homo sapiens, UniProt P08172); experiment: Displacement of [3H] N-methyl-scopolamine chloride from human muscarinic receptor M2 expressed in CHO cells; format: cell-based
# T2 sequence (P08172 whole entry): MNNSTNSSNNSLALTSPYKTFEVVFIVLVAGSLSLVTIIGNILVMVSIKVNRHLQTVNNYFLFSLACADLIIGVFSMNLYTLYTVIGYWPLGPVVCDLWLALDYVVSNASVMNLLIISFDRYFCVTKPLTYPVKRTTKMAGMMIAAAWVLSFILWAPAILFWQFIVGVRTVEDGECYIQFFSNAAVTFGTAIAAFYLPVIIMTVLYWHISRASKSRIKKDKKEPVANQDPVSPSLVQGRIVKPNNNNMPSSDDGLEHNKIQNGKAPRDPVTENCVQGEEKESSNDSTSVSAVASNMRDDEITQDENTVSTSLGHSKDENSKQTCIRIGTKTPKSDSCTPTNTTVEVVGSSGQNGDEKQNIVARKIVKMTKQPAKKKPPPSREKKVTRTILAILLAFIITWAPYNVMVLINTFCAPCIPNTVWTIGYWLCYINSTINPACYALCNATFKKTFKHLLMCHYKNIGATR
# [13] = system: Mus musculus; experiment: Antinociceptive activity in mouse assessed as licking latency at 10 ug, icv after 60 mins by hot plate method; format: functional
# [14] = system: Mus musculus; experiment: Antinociceptive activity in mouse assessed as licking latency at 0.03 ug, icv after 60 mins by hot plate method; format: functional
# [15] = system: Mus musculus; experiment: Antinociceptive activity in mouse assessed as licking latency at 0.01 ug, icv after 60 mins by hot plate method; format: functional
# [16] = biological target: T3, Muscarinic acetylcholine receptor M4 (Homo sapiens, UniProt P08173); experiment: Displacement of [3H] N-methyl-scopolamine chloride from human muscarinic receptor M4 expressed in CHO cells; format: cell-based
# T3 sequence (P08173 whole entry): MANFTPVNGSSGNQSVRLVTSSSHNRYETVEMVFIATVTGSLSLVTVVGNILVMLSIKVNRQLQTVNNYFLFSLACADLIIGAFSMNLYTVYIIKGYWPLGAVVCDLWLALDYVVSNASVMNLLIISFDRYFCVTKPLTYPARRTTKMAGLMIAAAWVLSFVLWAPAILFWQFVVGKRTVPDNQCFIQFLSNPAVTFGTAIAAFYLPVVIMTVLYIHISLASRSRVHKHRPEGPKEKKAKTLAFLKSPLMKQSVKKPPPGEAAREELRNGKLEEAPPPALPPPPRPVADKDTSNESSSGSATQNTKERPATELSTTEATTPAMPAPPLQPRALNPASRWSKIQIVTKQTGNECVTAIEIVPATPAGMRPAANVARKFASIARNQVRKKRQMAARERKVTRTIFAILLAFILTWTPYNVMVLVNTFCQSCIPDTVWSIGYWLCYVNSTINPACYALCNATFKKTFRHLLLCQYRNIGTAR
# [17] = biological target: Acetylcholinesterase (Homo sapiens, UniProt P22303); experiment: Inhibition of human erythrocyte recombinant AchE after 20 mins
# [18] = system: Mus musculus; experiment: Antinociceptive activity in mouse assessed as licking latency at 1.0 ug, icv after 15 mins by hot plate method; format: functional
# [19] = system: Mus musculus; experiment: Antinociceptive activity in mouse assessed as licking latency at 0.1 ug, icv after 15 mins by hot plate method; format: functional
# [20] = system: Mus musculus; experiment: Antinociceptive activity in mouse assessed as licking latency at 0.01 ug, icv after 45 mins by hot plate method; format: functional
# [21] = system: Mus musculus; experiment: Antinociceptive activity in mouse assessed as licking latency at 0.3 ug, icv after 30 mins by hot plate method; format: functional
# [22] = biological target: Muscarinic acetylcholine receptor M3 (Homo sapiens, UniProt P20309); experiment: Displacement of [3H] N-methyl-scopolamine chloride from human muscarinic receptor M3 expressed in CHO cells; format: cell-based
# [23] = biological target: T4, Muscarinic acetylcholine receptor M2 (Homo sapiens) (UniProt P08172); experiment: Antagonist potency at muscarinic receptor M2 in guinea pig atrium; format: functional, tissue-based; conditions: Cavia porcellus; Cardiac atrium; target entry is the homologue from another species
# T4 sequence (whole entry): T2 sequence (P08172 whole entry)
# [24] = biological target: T5, Muscarinic acetylcholine receptor M4 (Homo sapiens) (UniProt P08173); experiment: Antagonist potency at muscarinic receptor M4 in rabbit vas deferens; format: functional, tissue-based; conditions: Oryctolagus cuniculus, target entry is the homologue from another species
# T5 sequence (whole entry): T3 sequence (P08173 whole entry)
# [25] = biological target: Muscarinic acetylcholine receptor M3 (Cavia porcellus) (UniProt Q8VH26); experiment: Antagonist potency at muscarinic receptor M3 in guinea pig ileum; format: functional, tissue-based
# [26] = system: Mus musculus; experiment: Antinociceptive activity in mouse assessed as licking latency at 0.1 ug, icv after 30 mins by hot plate method; format: functional
# Chain of Muscarinic acetylcholine receptor M3 (Cavia porcellus) (Q8VH26 1-587): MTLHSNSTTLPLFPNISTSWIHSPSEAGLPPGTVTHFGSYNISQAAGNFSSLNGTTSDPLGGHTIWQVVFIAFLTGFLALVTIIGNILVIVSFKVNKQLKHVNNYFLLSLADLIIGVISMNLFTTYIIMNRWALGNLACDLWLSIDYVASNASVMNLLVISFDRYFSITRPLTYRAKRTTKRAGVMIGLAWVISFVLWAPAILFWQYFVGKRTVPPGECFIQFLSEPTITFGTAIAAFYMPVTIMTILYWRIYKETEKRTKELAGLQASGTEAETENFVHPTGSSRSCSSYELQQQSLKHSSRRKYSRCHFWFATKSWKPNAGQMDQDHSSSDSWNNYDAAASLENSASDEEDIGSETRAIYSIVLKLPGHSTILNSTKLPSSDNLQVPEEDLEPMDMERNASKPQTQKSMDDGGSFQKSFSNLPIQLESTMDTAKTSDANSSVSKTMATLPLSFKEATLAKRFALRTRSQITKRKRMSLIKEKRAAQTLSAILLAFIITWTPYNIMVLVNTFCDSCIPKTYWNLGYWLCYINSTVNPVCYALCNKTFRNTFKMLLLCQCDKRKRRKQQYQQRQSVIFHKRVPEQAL
# Chain of Acetylcholinesterase (P22303 whole entry): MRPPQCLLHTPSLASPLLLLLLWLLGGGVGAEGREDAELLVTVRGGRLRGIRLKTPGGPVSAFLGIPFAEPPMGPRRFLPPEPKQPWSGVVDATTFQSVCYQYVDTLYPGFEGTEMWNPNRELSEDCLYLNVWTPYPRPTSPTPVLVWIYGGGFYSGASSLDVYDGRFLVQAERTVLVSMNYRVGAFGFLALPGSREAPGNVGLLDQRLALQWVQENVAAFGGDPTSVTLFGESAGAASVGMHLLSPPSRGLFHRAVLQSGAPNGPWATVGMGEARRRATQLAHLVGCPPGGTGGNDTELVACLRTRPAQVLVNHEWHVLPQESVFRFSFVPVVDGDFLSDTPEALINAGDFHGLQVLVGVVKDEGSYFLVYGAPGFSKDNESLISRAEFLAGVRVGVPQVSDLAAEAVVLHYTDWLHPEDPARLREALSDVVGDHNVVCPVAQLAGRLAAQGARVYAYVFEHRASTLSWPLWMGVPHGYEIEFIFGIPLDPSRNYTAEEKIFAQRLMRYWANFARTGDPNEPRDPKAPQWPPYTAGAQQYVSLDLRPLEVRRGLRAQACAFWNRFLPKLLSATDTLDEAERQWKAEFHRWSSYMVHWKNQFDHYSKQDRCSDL
# Chain of Muscarinic acetylcholine receptor M3 (P20309 whole entry): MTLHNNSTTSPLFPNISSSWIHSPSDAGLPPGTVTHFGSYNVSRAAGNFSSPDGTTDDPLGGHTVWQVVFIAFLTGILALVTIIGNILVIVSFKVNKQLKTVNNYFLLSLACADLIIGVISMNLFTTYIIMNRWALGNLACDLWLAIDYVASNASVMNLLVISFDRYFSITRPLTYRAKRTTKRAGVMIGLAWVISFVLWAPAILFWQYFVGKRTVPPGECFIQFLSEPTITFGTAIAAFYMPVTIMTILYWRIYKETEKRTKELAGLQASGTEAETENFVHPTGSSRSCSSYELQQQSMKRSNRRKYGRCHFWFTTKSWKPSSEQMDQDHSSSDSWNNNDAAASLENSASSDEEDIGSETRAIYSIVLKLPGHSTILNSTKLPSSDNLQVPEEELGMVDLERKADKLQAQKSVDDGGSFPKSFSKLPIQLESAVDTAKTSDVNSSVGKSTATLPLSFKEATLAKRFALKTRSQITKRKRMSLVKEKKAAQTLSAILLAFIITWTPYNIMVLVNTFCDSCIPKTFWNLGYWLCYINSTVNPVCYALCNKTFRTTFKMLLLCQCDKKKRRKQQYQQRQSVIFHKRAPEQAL
structure (smiles),measurement,setting,value
COc1ccccc1CNCCCCCCN1CCC(CCC2CCN(CCCCCCNCc3ccccc3OC)CC2)CC1,Time,[1],20.1 s
same,Time,[2],15.6 s
same,Time,[3],18.3 s
same,Time,[4],17.1 s
same,Time,[5],17.7 s
same,Time,[6],15.7 s
same,Ki,[7],170 nM
same,Activity,[8],Active
same,Time,[9],13.3 s
same,Time,[10],19.5 s
same,Time,[11],15.9 s
same,Ki,[12],6.03 nM
same,Time,[13],18.3 s
same,Time,[14],16.1 s
same,Time,[15],14.2 s
same,Ki,[16],40.7 nM
same,IC50,[17],1290 nM
same,Time,[18],19.3 s
same,Time,[19],24.7 s
same,Time,[20],18.6 s
same,Time,[21],25 s
same,Ki,[22],214 nM
same,pKb,[23],7.98
same,pKb,[24],5.56
same,pKb,[25],6.58
same,Time,[26],24.5 s
